Measured values from BindingDB's records for doi:10.1016/j.bmc.2018.12.038 (Peking University, 2019).

Molecular target: T1, CD81 antigen (Homo sapiens, UniProt P60033)
T1 sequence (P60033 whole entry): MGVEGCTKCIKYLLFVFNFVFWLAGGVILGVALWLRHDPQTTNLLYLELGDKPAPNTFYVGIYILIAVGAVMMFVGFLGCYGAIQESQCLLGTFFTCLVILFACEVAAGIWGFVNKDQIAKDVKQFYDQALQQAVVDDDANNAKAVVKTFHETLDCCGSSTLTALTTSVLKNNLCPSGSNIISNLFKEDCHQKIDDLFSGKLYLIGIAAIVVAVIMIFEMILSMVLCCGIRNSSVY
Assay: Binding affinity to CD81 (unknown origin) assessed as […] rate constant by surface plasmon resonance assay
Settings: read-out: kon (M-1-s-1)

C/C(=C\CC[C@]1(C)[C@@H](C(=O)O)C[C@H]1[C@](C)(O)C(=O)O)C(=O)O
kon: 2.53e+08 M⁻¹ s⁻¹

CC(=O)[C@@H]1C[C@H](C(=O)O)[C@@]1(C)CC/C=C(\C)C(=O)O
kon: 2.02e+06 M⁻¹ s⁻¹
